Test system: recent-onset RA patients
Assay: Clinical response to methotrexate monotherapy (DAS) in genotyped patients of the BeSt trial
Format: in vivo, human
Details: for Good clinical response at six months, number of patients / Good clinical response at six months, percentage of patients: DAS≦2.4
Source text: The 247 patients enrolled in the study was a sub-cohort of 508 patients participating in the BeSt trial (25). Inclusion criteria for this trial were fulfilment of the American College of Rheumatology (ACR) 1987 criteria, age of 18 years or older, a disease duration of less than 2 years. All patients had to have an active disease defined as ≧6/66 swollen joints and ≧6/68 tender joints and either an ESR ≧28 mm/hr or a Visual Analogue Scale (VAS) for global health ≦20 mm (on a scale of 0-100, 0=worst, 100=best).
The BeSt trial is a randomized, multi-centre, single-blinded, clinical study comparing the clinical efficacy of four different treatment strategies in early rheumatoid arthritis; sequential monotherapy (n=126 starting with methotrexate), step-up to combination therapy with sulphasalazine (n=121 starting with methotrexate), initial combination therapy with methotrexate, sulphasalazine and a high tapered dose of prednisolone (n=133) or initial biologic therapy with infliximab and methotrexate (n=128). In the present study, only patients allocated to initial single use of methotrexate were selected (n=247).
The primary objective of treatment in the BeSt study was achieving good clinical response as defined by the DAS≦2.4 (26-28). The DAS is a validated composite outcome measure consisting of the Ritchie articular index (RAI), the number of swollen joints (SJC, out of 44), general well being as indicated by the patient on a visual analogue scale (VAS), and the Erythrocyte Sedimentation Rate (ESR). A research nurse who remained blinded for the allocated treatment group scored the DAS every three months.
All selected patients started with oral methotrexate 7.5 mg weekly, increased to 15 mg weekly after 4 weeks, combined with folic acid (1 mg per day). In case of insufficient clinical response at three months of follow-up (DAS>2.4), the dosage was increased stepwise to 25 mg weekly, either orally or parenterally as decided by the rheumatologist. If the clinical response remained insufficient with methotrexate 25 mg weekly, patients were treated according to the next step of the BeSt protocol; patients with methotrexate sequential monotherapy switched to sulphasalazine 1000 mg twice daily; patients with initial step-up combination therapy, sulphasalazine 1000 mg twice daily was added to methotrexate. Concomitant therapies with nonsteroidal anti-inflammatory drugs (NSAIDs), as well as intra-articular injections with corticosteroids, were allowed for all treatment groups. For current analysis, clinical data for the first six months of follow-up were used, representing methotrexate treatment only.
“Responders” were defined as patients with DAS ≦2.4 (good clinical response) based on EULAR response criteria (26-28) and ‘non-responders ’ as patients with DAS >2.4 at six months of follow up.
Differences in baseline characteristics were analysed by Student's t-test for continuous variables or Chi-square test for dichotomous variables. Differences in genotype distribution for response and toxicity were tested by 3 by 2 cross tabs for each genotype, and by 2 by 2 cross tabs for carriers versus non-carriers analysis with the two-sided Chi-square test. We used binary logistic analysis in case of differences in genotype distribution, to calculate odds ratios for achieving good response or experiencing adverse drug events. Age and gender were identified as possible confounders and were used as covariates in all regression analyses. The primary efficacy endpoint was good clinical response at six months (DAS≦2.4). DAS good clinical response status required patients to be present at a given time point; no values were carried forward. Secondary endpoints were good clinical improvement defined as change in DAS>1.2 (ΔDAS>1.2) and moderate clinical improvement defined as change in DAS>0.6 (ΔDAS>0.6). […]

**Q.** Which results are given for `CN(Cc1cnc2nc(N)nc(N)c2n1)c1ccc(C(=O)N[C@@H](CCC(=O)O)C(=O)O)cc1` [methotrexate]?
**A.** Good clinical response, Methotrexate 15 mg weekly, number of responders/patients (AMPD1 CC genotype, six months): 25/36; Good clinical response, Methotrexate 15 mg weekly, percentage (AMPD1 CC genotype, six months): (69%); Good clinical response, Methotrexate 25 mg weekly, number of responders/patients (AMPD1 CC genotype, six months): 30/98; Good clinical response, Methotrexate 25 mg weekly, percentage (AMPD1 CC genotype, six months): (31%); Good clinical response at six months, number of patients (AMPD1 CC genotype): 57; Good clinical response at six months, percentage of patients (AMPD1 CC genotype): (38%); good clinical response percentage at 6 months (AMPD1 CC genotyped patients): 42%; Good clinical response, Methotrexate 15 mg weekly, number of responders/patients (AMPD1 CT genotype, six months): 15/15; Good clinical response, Methotrexate 15 mg weekly, percentage (AMPD1 CT genotype, six months): (100%); Good clinical response, Methotrexate 25 mg weekly, number of responders/patients (AMPD1 CT genotype, six months): 13/29; Good clinical response, Methotrexate 25 mg weekly, percentage (AMPD1 CT genotype, six months): (45%); Good clinical response at six months, number of patients (AMPD1 CT genotype): 28; Good clinical response at six months, percentage of patients (AMPD1 CT genotype): (56%); percentage of good clinical response at six months (AMPD1 T-allele and ATIC CC (n=22)): 68; percentage of good clinical response at six months (AMPD1 T-allele and ITPA CC (n=41)): 63; times more likely to achieve good clinical response (AMPD1 T-allele carriers compared to AMPD1 CC, six months): 2.1 times; good clinical response percentage at 6 months (AMPD1 T-allelic carriers): 60%; Good clinical response, Methotrexate 15 mg weekly, number of responders/patients (AMPD1 TT genotype, six months): 1/1; Good clinical response, Methotrexate 15 mg weekly, percentage (AMPD1 TT genotype, six months): (100%); Good clinical response, Methotrexate 25 mg weekly, number of responders/patients (AMPD1 TT genotype, six months): 0/2; Good clinical response, Methotrexate 25 mg weekly, percentage (AMPD1 TT genotype, six months): (0%); Good clinical response at six months, number of patients (AMPD1 TT genotype): 1; Good clinical response at six months, percentage of patients (AMPD1 TT genotype): (33%); percentage of good clinical response at six months (ATIC CC and ITPA CC (n=82)): 56; patients in remission (DAS <1.6) at one-year of follow-up (ATIC CC genotype (n=97)): 35%; Good clinical response, Methotrexate 15 mg weekly, number of responders/patients (ATIC CC genotype, six months): 22/25; Good clinical response, Methotrexate 15 mg weekly, percentage (ATIC CC genotype, six months): (88%); Good clinical response, Methotrexate 25 mg weekly, number of responders/patients (ATIC CC genotype, six months): 28/61; Good clinical response, Methotrexate 25 mg weekly, percentage (ATIC CC genotype, six months): (46%); Good clinical response at six months, number of patients (ATIC CC genotype): 51; Good clinical response at six months, percentage of patients (ATIC CC genotype): (53%); good clinical response percentage at 6 months (ATIC CC patients): 58%; Good clinical response, Methotrexate 15 mg weekly, number of responders/patients (ATIC CG genotype, six months): 15/22; Good clinical response, Methotrexate 15 mg weekly, percentage (ATIC CG genotype, six months): (68%); Good clinical response, Methotrexate 25 mg weekly, number of responders/patients (ATIC CG genotype, six months): 14/60; Good clinical response, Methotrexate 25 mg weekly, percentage (ATIC CG genotype, six months): (23%); Good clinical response at six months, number of patients (ATIC CG genotype): 30; Good clinical response at six months, percentage of patients (ATIC CG genotype): (33%); good clinical response percentage at 6 months (ATIC G-allelic carriers): 37%; Good clinical response, Methotrexate 15 mg weekly, number of responders/patients (ATIC GG genotype, six months): 4/5; Good clinical response, Methotrexate 15 mg weekly, percentage (ATIC GG genotype, six months): (80%); Good clinical response, Methotrexate 25 mg weekly, number of responders/patients (ATIC GG genotype, six months): 2/9; Good clinical response, Methotrexate 25 mg weekly, percentage (ATIC GG genotype, six months): (22%); Good clinical response at six months, number of patients (ATIC GG genotype): 6; Good clinical response at six months, percentage of patients (ATIC GG genotype): (38%); good clinical response percentage at 6 months (ITPA A-allelic carriers): 26%; Good clinical response, Methotrexate 15 mg weekly, number of responders/patients (ITPA CA genotype, six months): 3/5
